Data taken from US7767707B2, “Fused pyrazolyl compounds having an aminoalkylcarbonyl group” (Yung Shin Pharm. Ind. Co., Ltd., priority 2007, dated 2010).

Tested on: NCI H-226 cells
Assay: Cytotoxicity MTT assay against NCI H-226 cells
Format: cell-based
Conditions: NCI H-226 cells (4 × 10^4), 72 hrs treatment, mean ± S.D. of three experiments
Procedure: The target compound 5, 6 and related succinate (A), glutamate (B) derivatives were evaluated in a MTT assay against NCI H226 cells, and the results are shown in Table 1.
The NCI H-226 cells were maintained in RPMI-1640 medium supplemented with 10% fetal bovine serum (GIBCO/BRL), penicillin (100 unit/mL)/streptomycin (100 μg/mL) (GIBCO/BRL) and 1% L-glutamine (GIBCO/BRL) at 37° C. in a humidified atmosphere containing 5% CO2. Logarithmically growing tumor cells were used for all experiments.
The cytotoxicity was assessed using MTT assay.^1 NCI H-226 cells (4×10^4) were treated separately with compounds A, B, 5, and 6 for 72 h. After treatment, the cells were collected, washed with cold PBS, and then added 10 μL of MTT solution (5 mg/mL)(Sigma) with 50 μL of cells suspension in HBSS into 96-well plate and incubated them at 37° C. in the dark for 2 h. Treatment of living cells with MTT produces a dark blue formazan product, whereas no such staining is observed in dead cells. The formazan product was dissolved by adding 140 μL DMSO and then the absorbance was measured on an ELISA reader at a best wavelength of 570 nm.
Values are expression as the mean ±S.D. of three independent experiments. Student's t tests were used to assess the statistical significance of the differences, with “p” values of less than 0.05 being considered statistically significant.

NCC(=O)OCc1ccc(-c2nn(Cc3ccccc3)c3ccccc23)o1 [Compound 5]
MTT % (Conc. 0.10 μM): 85.8 ± 1.7% | MTT % (Conc. 1.0 μM): 18.5 ± 3.9% | MTT % (Conc. 10.0 μM): 0%
